The structures appear in SMILES notation. The source made the active and inactive calls. The rule behind the calls is not given here.

The values that follow come from ChEMBL document CHEMBL5584225, “Discovery of an efficacious KDM5B PROTAC degrader GT-653 up-regulating IFN response genes in prostate cancer” (Eur J Med Chem, 2024).

Data set [1] addresses T1, Protein cereblon/Lysine-specific demethylase 5B (Homo sapiens) (UniProt Q96SW2+Q9UGL1). As to the kind of experiment: PROTAC activity at CRBN/KDM5B in human 22Rv1 cells assessed as induction of KDM5B degradation at 10 uM incubated for 12 hrs by Western blot analysis relative to control. It is filed as cell-based.
For data set [2], the target named is Lysine-specific demethylase 5B (Homo sapiens) (UniProt Q9UGL1). As to the kind of experiment: Inhibition of KDM5B in human 22Rv1 cells assessed as upregulation of H3K4me3 level at 20 uM incubated for 24 hrs by Western blot analysis. It is filed as cell-based.
Data set [3] has the same target. Briefly: Inhibition of KDM5B (unknown origin) assessed as increase in H3K4me3 level.
The target of data set [4] is T1, Protein cereblon/Lysine-specific demethylase 5B (Homo sapiens). Briefly: PROTAC activity at CRBN/KDM5B in human 22Rv1 cells assessed as induction of KDM5B degradation at 5 uM in presence of MG-132 measured after 24 hrs by Western blot analysis. It is filed as cell-based.
The target is the same in data set [5]. As to the kind of experiment: PROTAC activity at CRBN/KDM5B in human 22Rv1 cells assessed as increase in H3K4me3 level by […] analysis. It is filed as cell-based.
Data set [6] shares this target. Briefly: PROTAC activity at CRBN/KDM5B in human 22Rv1 cells assessed as induction of KDM5B degradation at 5 uM in presence of thalidomide measured after 24 hrs by Western blot analysis. It is filed as cell-based.
The test system of data set [7] is CWR22R. As to the kind of experiment: Upregulation of HHLA3 mRNA expression in KDM5B-deficient human 22Rv1 cells harboring reintroduced KDM5B L685W at 20 uM incubated for 24 hrs by RT-qPCR analysis. It is filed as functional, cell-based.
Data set [8] has as its target Lysine-specific demethylase 5B (Homo sapiens) (UniProt Q9UGL1). As to the kind of experiment: Inhibition of KDM5B non-catalytic activity in human 22Rv1 cells assessed as inhibition of KDM5B binding to SETDB1 by measuring reduction in H3K9me3 level at 20 uM incubated for 24 hrs by Co-IP analysis. It is filed as cell-based.
The target is the same in data set [9]. As to the kind of experiment: Induction of FLAG-tagged KDM5B degradation in HEK293T cells overexpressing KDM5B assessed as increase in ubiquitinated FLAG-KDM5B level by immunoprecipitation analysis. It is filed as cell-based.
Data set [10] relates to Protein cereblon/Lysine-specific demethylase 5B (Homo sapiens), Q96SW2+Q9UGL1 [L685W]. As to the kind of experiment: PROTAC activity at CRBN/KDM5B L685W mutant in KDM5B-deficient human 22Rv1 cells harboring reintroduced KDM5B L685W assessed as induction of protein degradation at 20 uM incubated for 24 hrs by Western blot analysis. It is filed as cell-based.
Data set [11] has as its system CWR22R. As to the kind of experiment: Upregulation of IFI27L2 mRNA expression in KDM5B-deficient human 22Rv1 cells harboring reintroduced KDM5B L685W at 20 uM incubated for 24 hrs by RT-qPCR analysis. It is filed as functional, cell-based.
Data set [12] has as its target T1, Protein cereblon/Lysine-specific demethylase 5B (Homo sapiens). Briefly: PROTAC activity at CRBN/KDM5B in human 22Rv1 cells assessed as reduction in KDM5B level at 0 to 20 uM incubated for 24 hrs by Western blot analysis. It is filed as cell-based. The following applies: dose 0-20 µM.
Data set [13] has as its system CWR22R. Briefly: Upregulation of IRF3 mRNA expression in KDM5B-deficient human 22Rv1 cells harboring reintroduced KDM5B L685W at 20 uM incubated for 24 hrs by RT-qPCR analysis. It is filed as functional, cell-based.
In data set [14] the target is Protein cereblon/Lysine-specific demethylase 5A (Homo sapiens) (UniProt P29375+Q96SW2). Briefly: Induction of KDM5A-CRBN (unknown origin) protein protein interaction assessed as ternary complex formation. It is filed as protein assay.
Data set [15] addresses T1, Protein cereblon/Lysine-specific demethylase 5B (Homo sapiens). Briefly: PROTAC activity at CRBN/KDM5B in human 22Rv1 cells assessed as induction of KDM5B degradation at 5 uM in presence of CPI-455 measured after 24 hrs by Western blot analysis. It is filed as cell-based.
Data set [16] relates to CWR22R. Briefly: Downregulation of KDM5B-induced H3K9me3 level in KDM5B-deficient human 22Rv1 cells harboring reintroduced KDM5B L685W at 20 uM incubated for 24 hrs by Western blot analysis. It is filed as functional, cell-based.
The target of data set [17] is T1, Protein cereblon/Lysine-specific demethylase 5B (Homo sapiens). Briefly: PROTAC activity at CRBN/KDM5B in human 22Rv1 cells assessed as induction of KDM5B degradation at 10 uM in presence of cycloheximide measured after 2 to 12 hrs by Western blot analysis. It is filed as cell-based. The conditions noted are these: time 2-12 hrs.
The target of data set [18] is Lysine-specific demethylase 5B (Homo sapiens) (UniProt Q9UGL1). Briefly: Inhibition of KDM5B in human 22Rv1 cells assessed as upregulation of IRF3 mRNA expression at 20 uM incubated for 24 hrs by RT-qPCR analysis. It is filed as cell-based.
Data set [19] shares this target. Briefly: Inhibition of KDM5B in human 22Rv1 cells assessed as upregulation of IFI35 mRNA expression at 20 uM incubated for 24 hrs by RT-qPCR analysis. It is filed as cell-based.
For data set [20], the target named is T1, Protein cereblon/Lysine-specific demethylase 5B (Homo sapiens). As to the kind of experiment: Induction of KDM5B-CRBN protein protein interaction in human 22Rv1 cells at 20 uM incubated for 12 hrs in presence of MG-132 by Western blot analysis. It is filed as cell-based.
In data set [21] the test system is CWR22R. As to the kind of experiment: Upregulation of IFI35 mRNA expression in KDM5B-deficient human 22Rv1 cells harboring reintroduced KDM5B L685W at 20 uM incubated for 24 hrs by RT-qPCR analysis. It is filed as functional, cell-based.
For data set [22], the target named is T1, Protein cereblon/Lysine-specific demethylase 5B (Homo sapiens). Briefly: PROTAC activity at CRBN/KDM5B in human 22Rv1 cells assessed as reduction in KDM5B level by RT-qPCR analysis. It is filed as cell-based.
Data set [23] concerns the target Lysine-specific demethylase 5B (Homo sapiens) (UniProt Q9UGL1). As to the kind of experiment: Inhibition of KDM5B in human 22Rv1 cells assessed as upregulation of HHLA3 mRNA expression at 20 uM incubated for 24 hrs by RT-qPCR analysis. It is filed as cell-based.
The test system of data set [24] is CWR22R. As to the kind of experiment: Cytotoxicity against human 22Rv1 cells assessed as reduction in cell proliferation at 0 to 20 uM measured after 24 to 48 hrs by MTS assay. It is filed as toxicity, cell-based. The conditions noted are these: dose lower 0 µM, time lower 24 hrs, dose upper 20 µM, time upper 48 hrs.
Data set [25] deals with T1, Protein cereblon/Lysine-specific demethylase 5B (Homo sapiens). Briefly: PROTAC activity at CRBN/KDM5B in human 22Rv1 cells assessed as increase in H3K4me3 level at 0 to 20 uM incubated for 24 hrs by Western blot analysis. It is filed as cell-based. The conditions noted are these: dose 0-20 µM.
Data set [26] relates to CWR22R. Briefly: Effect on KDM5B transcription in human 22Rv1 cells at 0 to 20 uM measured after 24 hrs by RT-qPCR analysis. The conditions noted are these: dose 0-20 µM. It is filed as functional, cell-based.
Data set [27] concerns the target Protein cereblon/Lysine-specific demethylase 5C (Homo sapiens) (UniProt P41229+Q96SW2). As to the kind of experiment: Induction of KDM5C-CRBN (unknown origin) protein protein interaction assessed as ternary complex formation. It is filed as protein assay.
In data set [28] the target is Lysine-specific demethylase 5B (Homo sapiens) (UniProt Q9UGL1). Briefly: Inhibition of KDM5B in human 22Rv1 cells assessed as upregulation of IFI27L2 mRNA expression at 20 uM incubated for 24 hrs by RT-qPCR analysis. It is filed as cell-based.

T1 sequence (Q96SW2 whole entry, looked up): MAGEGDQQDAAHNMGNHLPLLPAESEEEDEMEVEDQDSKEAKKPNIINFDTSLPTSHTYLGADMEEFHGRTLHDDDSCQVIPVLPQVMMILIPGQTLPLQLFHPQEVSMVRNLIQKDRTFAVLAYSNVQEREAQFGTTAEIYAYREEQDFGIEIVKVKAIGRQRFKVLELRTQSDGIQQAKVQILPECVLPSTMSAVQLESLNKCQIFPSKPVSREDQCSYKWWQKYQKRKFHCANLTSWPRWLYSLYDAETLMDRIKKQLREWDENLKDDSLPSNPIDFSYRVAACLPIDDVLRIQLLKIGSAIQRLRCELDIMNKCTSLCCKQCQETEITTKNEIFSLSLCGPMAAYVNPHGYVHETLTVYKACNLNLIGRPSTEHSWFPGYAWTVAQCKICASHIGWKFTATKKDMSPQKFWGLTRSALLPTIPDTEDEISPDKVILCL
T1 sequence (Q9UGL1 whole entry, looked up): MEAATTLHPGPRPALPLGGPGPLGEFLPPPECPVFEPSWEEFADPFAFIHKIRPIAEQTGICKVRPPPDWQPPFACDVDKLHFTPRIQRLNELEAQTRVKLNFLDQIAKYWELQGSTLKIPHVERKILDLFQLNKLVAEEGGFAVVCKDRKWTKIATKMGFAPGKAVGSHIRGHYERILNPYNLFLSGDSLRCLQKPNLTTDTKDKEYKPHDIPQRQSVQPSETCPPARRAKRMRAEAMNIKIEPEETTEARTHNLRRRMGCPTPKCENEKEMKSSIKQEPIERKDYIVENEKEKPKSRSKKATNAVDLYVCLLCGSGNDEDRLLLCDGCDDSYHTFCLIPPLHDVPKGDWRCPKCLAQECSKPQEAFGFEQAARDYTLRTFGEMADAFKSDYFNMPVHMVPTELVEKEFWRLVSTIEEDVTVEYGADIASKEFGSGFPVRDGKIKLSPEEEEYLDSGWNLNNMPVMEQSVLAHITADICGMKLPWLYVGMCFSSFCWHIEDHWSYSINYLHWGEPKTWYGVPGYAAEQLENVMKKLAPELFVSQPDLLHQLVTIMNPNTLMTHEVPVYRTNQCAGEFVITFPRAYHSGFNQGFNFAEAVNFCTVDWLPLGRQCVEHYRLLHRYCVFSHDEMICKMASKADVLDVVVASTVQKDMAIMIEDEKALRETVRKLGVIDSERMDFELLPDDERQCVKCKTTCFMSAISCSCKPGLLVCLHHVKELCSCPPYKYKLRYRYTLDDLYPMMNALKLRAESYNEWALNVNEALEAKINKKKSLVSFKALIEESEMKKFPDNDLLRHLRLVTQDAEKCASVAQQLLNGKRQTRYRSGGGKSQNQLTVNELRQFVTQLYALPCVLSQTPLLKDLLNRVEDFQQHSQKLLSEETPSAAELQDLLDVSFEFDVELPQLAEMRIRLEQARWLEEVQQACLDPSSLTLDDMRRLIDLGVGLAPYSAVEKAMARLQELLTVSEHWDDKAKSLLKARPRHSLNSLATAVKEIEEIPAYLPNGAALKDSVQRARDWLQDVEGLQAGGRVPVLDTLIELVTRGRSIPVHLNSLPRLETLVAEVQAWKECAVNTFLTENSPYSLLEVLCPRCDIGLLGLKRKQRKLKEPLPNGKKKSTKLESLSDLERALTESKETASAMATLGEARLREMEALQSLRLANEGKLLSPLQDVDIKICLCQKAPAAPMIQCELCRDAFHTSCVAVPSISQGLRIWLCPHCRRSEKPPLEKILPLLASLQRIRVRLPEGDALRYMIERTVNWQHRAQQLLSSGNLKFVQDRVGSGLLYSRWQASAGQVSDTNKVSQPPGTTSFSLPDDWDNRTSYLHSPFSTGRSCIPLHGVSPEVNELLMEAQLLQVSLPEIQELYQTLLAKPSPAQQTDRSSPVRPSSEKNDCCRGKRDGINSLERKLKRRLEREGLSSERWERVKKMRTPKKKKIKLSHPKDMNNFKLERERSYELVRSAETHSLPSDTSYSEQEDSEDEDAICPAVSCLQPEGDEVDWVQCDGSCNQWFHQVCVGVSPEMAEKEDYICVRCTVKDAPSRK
Sequence of Lysine-specific demethylase 5B (Homo sapiens) (Q9UGL1 whole entry): as the sequence (Q9UGL1 whole entry, looked up) above
Sequence of Protein cereblon/Lysine-specific demethylase 5C (Homo sapiens) (P41229 whole entry, looked up): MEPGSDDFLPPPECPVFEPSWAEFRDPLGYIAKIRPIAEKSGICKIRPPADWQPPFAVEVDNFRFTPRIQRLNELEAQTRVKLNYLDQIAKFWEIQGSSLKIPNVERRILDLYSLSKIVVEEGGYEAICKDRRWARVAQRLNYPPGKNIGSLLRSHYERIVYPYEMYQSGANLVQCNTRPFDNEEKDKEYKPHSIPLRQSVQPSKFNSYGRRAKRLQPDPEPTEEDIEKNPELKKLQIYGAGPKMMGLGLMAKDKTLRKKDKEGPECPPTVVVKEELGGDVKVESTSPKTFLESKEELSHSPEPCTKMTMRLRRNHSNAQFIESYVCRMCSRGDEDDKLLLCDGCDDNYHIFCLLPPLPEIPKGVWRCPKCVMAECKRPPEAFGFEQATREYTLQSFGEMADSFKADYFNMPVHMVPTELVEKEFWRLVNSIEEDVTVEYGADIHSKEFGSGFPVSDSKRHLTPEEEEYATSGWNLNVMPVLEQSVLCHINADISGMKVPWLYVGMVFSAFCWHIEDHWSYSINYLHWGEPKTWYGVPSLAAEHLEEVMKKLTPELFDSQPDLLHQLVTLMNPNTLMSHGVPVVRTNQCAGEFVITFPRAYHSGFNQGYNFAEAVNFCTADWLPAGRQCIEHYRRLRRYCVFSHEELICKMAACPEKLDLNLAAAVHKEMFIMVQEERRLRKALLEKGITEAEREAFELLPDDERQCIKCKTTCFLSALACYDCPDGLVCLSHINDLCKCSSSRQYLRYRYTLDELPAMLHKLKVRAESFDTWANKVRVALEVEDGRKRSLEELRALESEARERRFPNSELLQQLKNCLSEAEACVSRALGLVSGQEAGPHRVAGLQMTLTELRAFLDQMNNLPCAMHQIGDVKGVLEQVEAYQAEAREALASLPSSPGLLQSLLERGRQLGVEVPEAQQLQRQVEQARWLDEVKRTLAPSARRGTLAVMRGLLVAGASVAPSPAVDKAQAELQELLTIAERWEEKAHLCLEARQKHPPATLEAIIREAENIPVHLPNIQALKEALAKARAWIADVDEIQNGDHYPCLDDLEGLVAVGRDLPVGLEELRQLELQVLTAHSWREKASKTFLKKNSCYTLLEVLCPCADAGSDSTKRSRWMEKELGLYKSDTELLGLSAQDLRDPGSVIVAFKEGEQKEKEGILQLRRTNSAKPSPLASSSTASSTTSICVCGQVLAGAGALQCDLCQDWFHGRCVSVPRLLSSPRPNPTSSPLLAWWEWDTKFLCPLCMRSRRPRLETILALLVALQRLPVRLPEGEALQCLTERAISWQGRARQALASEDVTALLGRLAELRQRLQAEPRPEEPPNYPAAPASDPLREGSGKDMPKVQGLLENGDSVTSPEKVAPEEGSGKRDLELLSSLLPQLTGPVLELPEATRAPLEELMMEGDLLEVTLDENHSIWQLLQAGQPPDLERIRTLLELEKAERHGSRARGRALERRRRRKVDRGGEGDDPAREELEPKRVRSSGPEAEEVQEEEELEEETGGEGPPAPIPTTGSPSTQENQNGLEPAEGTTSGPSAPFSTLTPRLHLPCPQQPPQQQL
Sequence of Protein cereblon/Lysine-specific demethylase 5C (Homo sapiens) (Q96SW2 whole entry, looked up): as the sequence (Q96SW2 whole entry, looked up) above

Regarding `N#Cc1cnn2c(=O)cc(-c3ccc(OCCNC(=O)CCCNc4cccc5c4C(=O)N(C4CCC(=O)NC4=O)C5=O)cc3)[nH]c12` (centres undefined), in data set [1], the Activity amounted to 0%.

Turning to `CC(C)c1c(-c2ccccc2)[nH]c2c(C#N)cnn2c1=O`, the inhibition entry in data set [2] was “Active”.

With `N#Cc1cnn2c(=O)cc(-c3ccc(OCCNC(=O)CCOCCOCCOCCOCCNc4cccc5c4C(=O)N(C4CCC(=O)NC4=O)C5=O)cc3)[nH]c12` (centres undefined), in data set [1], the Activity was 0%.

With `CC(C)(C)OC(=O)COc1ccc(-c2cc(=O)n3ncc(C#N)c3[nH]2)cc1`, the inhibition entry in data set [3] is “Active”.

In the case of `N#Cc1cnn2c(=O)cc(-c3ccc(OCCNC(=O)CCOCCOCCOCCNc4cccc5c4C(=O)N(C4CCC(=O)NC4=O)C5=O)cc3)[nH]c12` (centres undefined), in data set [1], the Activity amounted to 0%.

Consider `N#Cc1cnn2c(=O)cc(-c3ccc(OCCNC(=O)CCOCCOCCNc4cccc5c4C(=O)N(C4CCC(=O)NC4=O)C5=O)cc3)[nH]c12` (centres undefined), for which the Activity in data set [1] is 0%.

`N#Cc1cnn2c(=O)cc(-c3ccc(OCC(=O)NCCOCCNC(=O)CNc4cccc5c4C(=O)N(C4CCC(=O)NC4=O)C5=O)cc3)[nH]c12` (centres undefined): the Activity in data set [1] was 0%.

Turning to `N#Cc1cnn2c(=O)cc(-c3ccc(OCC(=O)NCCOCCOc4cccc5c4C(=O)N(C4CCC(=O)NC4=O)C5=O)cc3)[nH]c12` (centres undefined), the result (in data set [4]; in data set [6]; in [14]; in [15]; in the data set on CWR22R [26]; in [27]) was inactive. Also, the outcome (in data set [5]; with CWR22R [7]; in data set [9]; in data set [10]; in the data set on CWR22R [11]; in data set [12]) was Active. For the same compound, the outcome (with CWR22R [13]; with CWR22R [16]; in data set [17]; in data set [20]; in the data set with CWR22R [21]; in data set [22]) was Active. Further, the outcome in data set [25] was Active. Besides, the inhibition result in [2], in data set [8], in data set [18], in data set [19], in data set [23] and in data set [28] was “Active” throughout. For the same compound, the Activity in [1] was 68.3%; in the data set on CWR22R [24] it was “Non-Toxic”.

Consider `N#Cc1cnn2c(=O)cc(-c3ccc(OCCNC(=O)CCCCCNc4cccc5c4C(=O)N(C4CCC(=O)NC4=O)C5=O)cc3)[nH]c12` (centres undefined), for which the Activity in data set [1] came to 10.8%.

As to `CC(C)(C)OC(=O)NCCOc1ccc(-c2cc(=O)n3ncc(C#N)c3[nH]2)cc1`, the inhibition result in [3] was “Active”.

For the compound `N#Cc1cnn2c(=O)cc(-c3ccc(OCC(=O)NCCOCCNC(=O)COc4cccc5c4C(=O)N(C4CCC(=O)NC4=O)C5=O)cc3)[nH]c12` (centres undefined), the Activity in [1] is 0%.

Take `N#Cc1cnn2c(=O)cc(-c3ccc(OCCNC(=O)CCOCCOc4cccc5c4C(=O)N(C4CCC(=O)NC4=O)C5=O)cc3)[nH]c12` (centres undefined): the Activity in data set [1] was 6.31%.

For `N#Cc1cnn2c(=O)cc(-c3ccc(OCCNC(=O)CCOCCNc4cccc5c4C(=O)N(C4CCC(=O)NC4=O)C5=O)cc3)[nH]c12` (centres undefined), the Activity in [1] worked out at 5.27%.
